{"source": "ChEMBL document CHEMBL4765295", "about": "“Synthesis, pharmacological profile and 2D-QSAR studies of curcumin-amino acid conjugates as potential drug candidates” (Eur J Med Chem, 2020)"}
{"tested_on": "Rattus norvegicus", "assay": "Antiinflammatory activity in Wistar rat model of carrageenan-induced paw edema assessed as reduction in thickness of paw edema at 10 mg/kg, ip pretreated for 1 hr followed by carrageenan challenge and measured after 1 hr (reference value: 2.41 +/-0.05 mm)", "format": "functional", "settings": "time 1 hr after carrageenan", "units": {"Activity": "mm"}}
{"smiles": "COc1cc(/C=C/C(=O)/C=C(O)/C=C/c2ccc(OC(=O)[C@H](CCSC)NC(=O)OC(C)(C)C)c(OC)c2)ccc1OC(=O)[C@H](CCSC)NC(=O)OC(C)(C)C", "Activity": 1.59}
{"tested_on": "Rattus norvegicus", "assay": "Anti-inflammatory activity in Wistar rat assessed as inhibition of carrageenan-induced paw edema at 10 mg/kg, ip pretreated for 1 hr followed by carrageenan challenge and measured after 1 hr relative to control (reference value: 0.00 +/-0.02 %)", "format": "functional", "settings": "time 2 hrs", "units": {"inhibition in vivo at 10 mg/kg": "%"}}
{"smiles": "COc1cc(/C=C/C(=O)/C=C(O)/C=C/c2ccc(OC(=O)[C@H](CCSC)NC(=O)OC(C)(C)C)c(OC)c2)ccc1OC(=O)[C@H](CCSC)NC(=O)OC(C)(C)C", "inhibition in vivo at 10 mg/kg": 34}
{"tested_on": "Rattus norvegicus", "assay": "Antiinflammatory activity in Wistar rat model of carrageenan-induced paw edema assessed as reduction in thickness of paw edema at 10 mg/kg, ip pretreated for 1 hr followed by carrageenan challenge and measured after 2 hrs (reference value: 2.06 +/-0.09 mm)", "format": "functional", "settings": "time 3 hrs", "units": {"Activity": "mm"}}
{"smiles": "COc1cc(/C=C/C(=O)/C=C(O)/C=C/c2ccc(OC(=O)[C@H](CCSC)NC(=O)OC(C)(C)C)c(OC)c2)ccc1OC(=O)[C@H](CCSC)NC(=O)OC(C)(C)C", "Activity": 1.31}
{"tested_on": "Rattus norvegicus", "assay": "Anti-inflammatory activity in Wistar rat assessed as inhibition of carrageenan-induced paw edema at 10 mg/kg, ip pretreated for 1 hr followed by carrageenan challenge and measured after 2 hr relative to control (reference value: 0.00 +/-0.03 %)", "format": "functional", "settings": "time 3 hrs", "units": {"inhibition in vivo at 10 mg/kg": "%"}}
{"smiles": "COc1cc(/C=C/C(=O)/C=C(O)/C=C/c2ccc(OC(=O)[C@H](CCSC)NC(=O)OC(C)(C)C)c(OC)c2)ccc1OC(=O)[C@H](CCSC)NC(=O)OC(C)(C)C", "inhibition in vivo at 10 mg/kg": 36}
{"tested_on": "Rattus norvegicus", "assay": "Antiinflammatory activity in Wistar rat model of carrageenan-induced paw edema assessed as reduction in thickness of paw edema at 10 mg/kg, ip pretreated for 1 hr followed by carrageenan challenge and measured after 3 hrs (reference value: 1.79 +/-0.07 mm)", "format": "functional", "settings": "time 4 hrs", "units": {"Activity": "mm"}}
{"smiles": "COc1cc(/C=C/C(=O)/C=C(O)/C=C/c2ccc(OC(=O)[C@H](CCSC)NC(=O)OC(C)(C)C)c(OC)c2)ccc1OC(=O)[C@H](CCSC)NC(=O)OC(C)(C)C", "Activity": 1.01}
{"tested_on": "Rattus norvegicus", "assay": "Anti-inflammatory activity in Wistar rat assessed as inhibition of carrageenan-induced paw edema at 10 mg/kg, ip pretreated for 1 hr followed by carrageenan challenge and measured after 3 hr relative to control (reference value: 0.00 +/-0.1 %)", "format": "functional", "settings": "time 4 hrs", "units": {"inhibition in vivo at 10 mg/kg": "%"}}
{"smiles": "COc1cc(/C=C/C(=O)/C=C(O)/C=C/c2ccc(OC(=O)[C@H](CCSC)NC(=O)OC(C)(C)C)c(OC)c2)ccc1OC(=O)[C@H](CCSC)NC(=O)OC(C)(C)C", "inhibition in vivo at 10 mg/kg": 44}
{"tested_on": "Rattus norvegicus", "assay": "Antiinflammatory activity in Wistar rat model of carrageenan-induced paw edema assessed as reduction in thickness of paw edema at 10 mg/kg, ip pretreated for 1 hr followed by carrageenan challenge and measured after 4 hrs (reference value: 1.40 +/-0.10 mm)", "format": "functional", "settings": "time 5 hrs", "units": {"Activity": "mm"}}
{"smiles": "COc1cc(/C=C/C(=O)/C=C(O)/C=C/c2ccc(OC(=O)[C@H](CCSC)NC(=O)OC(C)(C)C)c(OC)c2)ccc1OC(=O)[C@H](CCSC)NC(=O)OC(C)(C)C", "Activity": 0.17}
{"tested_on": "Rattus norvegicus", "assay": "Anti-inflammatory activity in Wistar rat assessed as inhibition of carrageenan-induced paw edema at 10 mg/kg, ip pretreated for 1 hr followed by carrageenan challenge and measured after 4 hr relative to control (reference value: 0.00 +/-0.4 %)", "format": "functional", "settings": "time 5 hrs", "units": {"inhibition in vivo at 10 mg/kg": "%"}}
{"smiles": "COc1cc(/C=C/C(=O)/C=C(O)/C=C/c2ccc(OC(=O)[C@H](CCSC)NC(=O)OC(C)(C)C)c(OC)c2)ccc1OC(=O)[C@H](CCSC)NC(=O)OC(C)(C)C", "inhibition in vivo at 10 mg/kg": 88}
{"tested_on": "Rattus norvegicus", "assay": "Antiinflammatory activity in Wistar rat model of carrageenan-induced paw edema assessed as reduction in thickness of paw edema at 10 mg/kg, ip pretreated for 1 hr followed by carrageenan challenge and measured after 24 hrs (reference value: 0.83 +/-0.08 mm)", "format": "functional", "settings": "time 25 hrs", "units": {"Activity": "mm"}}
{"smiles": "COc1cc(/C=C/C(=O)/C=C(O)/C=C/c2ccc(OC(=O)[C@H](CCSC)NC(=O)OC(C)(C)C)c(OC)c2)ccc1OC(=O)[C@H](CCSC)NC(=O)OC(C)(C)C", "Activity": 0.64}
{"tested_on": "Rattus norvegicus", "assay": "Anti-inflammatory activity in Wistar rat assessed as inhibition of carrageenan-induced paw edema at 10 mg/kg, ip pretreated for 1 hr followed by carrageenan challenge and measured after 24 hr relative to control (reference value: 0.00 +/-0.3 %)", "format": "functional", "settings": "time 25 hrs", "units": {"inhibition in vivo at 10 mg/kg": "%"}}
{"smiles": "COc1cc(/C=C/C(=O)/C=C(O)/C=C/c2ccc(OC(=O)[C@H](CCSC)NC(=O)OC(C)(C)C)c(OC)c2)ccc1OC(=O)[C@H](CCSC)NC(=O)OC(C)(C)C", "inhibition in vivo at 10 mg/kg": 23}
{"tested_on": "Rattus norvegicus", "assay": "Anti-inflammatory activity in Wistar rat assessed as inhibition of carrageenan-induced paw edema at 10 mg/kg, ip pretreated for 1 hr followed by carrageenan challenge and measured after 4 hr relative to indomethacin", "format": "functional", "settings": "time 5 hrs", "units": {"inhibition in vivo at 10 mg/kg": "%"}}
{"smiles": "COc1cc(/C=C/C(=O)/C=C(O)/C=C/c2ccc(OC(=O)[C@H](CCSC)NC(=O)OC(C)(C)C)c(OC)c2)ccc1OC(=O)[C@H](CCSC)NC(=O)OC(C)(C)C", "inhibition in vivo at 10 mg/kg": 101}
{"tested_on": "not listed separately", "assay": "Ulcerogenic activity in fasted albino mouse assessed as incidence of gastric ulceration at 10 mg/kg, po for 3 days (reference value: 0 %)", "format": "toxicity, organism-based", "settings": "in vivo, 72 h, time 3 day", "units": {"Activity": "%"}}
{"smiles": "COc1cc(/C=C/C(=O)/C=C(O)/C=C/c2ccc(OC(=O)[C@H](CCSC)NC(=O)OC(C)(C)C)c(OC)c2)ccc1OC(=O)[C@H](CCSC)NC(=O)OC(C)(C)C", "Activity": 0}
{"tested_on": "not listed separately", "assay": "Ulcerogenic activity in fasted albino mouse assessed as average number of ulcers in gastric mucosa at 10 mg/kg, po for 3 days (reference value: 0)", "format": "toxicity, organism-based", "settings": "in vivo, 72 h, time 3 day"}
{"smiles": "COc1cc(/C=C/C(=O)/C=C(O)/C=C/c2ccc(OC(=O)[C@H](CCSC)NC(=O)OC(C)(C)C)c(OC)c2)ccc1OC(=O)[C@H](CCSC)NC(=O)OC(C)(C)C", "Activity": 0}
{"tested_on": "not listed separately", "assay": "Ulcerogenic activity in fasted albino mouse assessed as average severity of ulcers in gastric mucosa at 10 mg/kg, po for 3 days (reference value: 0)", "format": "toxicity, organism-based", "settings": "in vivo, 72 h, time 3 day"}
{"smiles": "COc1cc(/C=C/C(=O)/C=C(O)/C=C/c2ccc(OC(=O)[C@H](CCSC)NC(=O)OC(C)(C)C)c(OC)c2)ccc1OC(=O)[C@H](CCSC)NC(=O)OC(C)(C)C", "Activity": 0}
{"tested_on": "not listed separately", "assay": "Ulcerogenic activity in fasted albino mouse assessed as ulcer index in gastric mucosa at 10 mg/kg, po for 3 days (reference value: 0)", "format": "toxicity, organism-based", "settings": "in vivo, 72 h, time 3 day"}
{"smiles": "COc1cc(/C=C/C(=O)/C=C(O)/C=C/c2ccc(OC(=O)[C@H](CCSC)NC(=O)OC(C)(C)C)c(OC)c2)ccc1OC(=O)[C@H](CCSC)NC(=O)OC(C)(C)C", "UI": 0}
{"tested_on": "Splenocyte", "assay": "Immunomodulatory activity in Swiss albino mouse splenocytes assessed as cell viability at 10 uM by measuring stimulation index incubated for 72 hrs in presence of mitogenic stimulus phytohaemagglutinin by MTT assay (reference value: 1.00 +/- 0.24)", "format": "functional", "settings": "not given"}
{"smiles": "COc1cc(/C=C/C(=O)/C=C(O)/C=C/c2ccc(OC(=O)[C@H](CCSC)NC(=O)OC(C)(C)C)c(OC)c2)ccc1OC(=O)[C@H](CCSC)NC(=O)OC(C)(C)C", "Activity_index": 1.37}
{"tested_on": "Splenocyte", "assay": "Immunomodulatory activity in Swiss albino mouse splenocytes assessed as cell viability at 10 uM by measuring inhibition of stimulation index incubated for 72 hrs in presence of mitogenic stimulus phytohaemagglutinin by MTT assay relative to indomethacin", "format": "functional", "settings": "read-out: Activity", "units": {"viability at 10 µM": "%"}}
{"smiles": "COc1cc(/C=C/C(=O)/C=C(O)/C=C/c2ccc(OC(=O)[C@H](CCSC)NC(=O)OC(C)(C)C)c(OC)c2)ccc1OC(=O)[C@H](CCSC)NC(=O)OC(C)(C)C", "viability at 10 µM": 88.5}
{"tested_on": "Peritoneal macrophage", "assay": "Antiinflammatory activity in […] mouse Peritoneal macrophages assessed as reduction in LPS-induced NO production by measuring reduction in stimulation index at 10 uM preincubated for 1 hr followed by LPS stimulation measured after 24 hrs by Griess method (reference value: 27.31 +/- 2.56 uM)", "format": "functional", "settings": "time 25 hrs", "units": {"Activity": "µM"}}
{"smiles": "COc1cc(/C=C/C(=O)/C=C(O)/C=C/c2ccc(OC(=O)[C@H](CCSC)NC(=O)OC(C)(C)C)c(OC)c2)ccc1OC(=O)[C@H](CCSC)NC(=O)OC(C)(C)C", "Activity": 16.16}
